Laboratory results: ChEMBL document CHEMBL1201862, “PubChem BioAssay data set” (2004)
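48-hour exposure; five concentrations; linearly interpolated endpoints. GI50: concentration for 50% inhibition of growth.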 Activity calls are given as the source filed them. Rule as the data show it: active = GI50 up to about 1.1 µM and inactive = higher.

What was measured:
Assay in all cases: NCI anticancer screen, dose series, 48 h
786-0 = test system: 786-0
A498 = test system: A498
A549 = test system: A549
ACHN = test system: ACHN
CAKI-1 = test system: CAKI-1
CCRF-CEM = test system: CCRF-CEM
COLO 205 = test system: COLO 205
DLD-1 = test system: DLD-1
DMS-114 = test system: DMS-114
DMS-273 = test system: DMS-273
EKVX = test system: EKVX
HCC 2998 = test system: HCC 2998
HCT-116 = test system: HCT-116
HCT-15 = test system: HCT-15
HL-60 = test system: HL-60
HOP-18 = test system: HOP-18
HOP-62 = test system: HOP-62
HOP-92 = test system: HOP-92
HT-29 = test system: HT-29
IGROV-1 = test system: IGROV-1
K562 = test system: K562
KM-20L2 = test system: KM-20L2
KM12 = test system: KM12
LOX IMVI = test system: LOX IMVI
LXFL 529 = test system: LXFL 529
M14 = test system: M14
M19-MEL = test system: M19-MEL
MOLT-4 = test system: MOLT-4
Malme-3M = test system: Malme-3M
NCI-H226 = test system: NCI-H226
NCI-H23 = test system: NCI-H23
NCI-H460 = test system: NCI-H460
NCI-H522 = test system: NCI-H522
OVCAR-3 = test system: OVCAR-3
OVCAR-4 = test system: OVCAR-4
OVCAR-5 = test system: OVCAR-5
OVCAR-8 = test system: OVCAR-8
RPMI-8226 = test system: RPMI-8226
RXF 393 = test system: RXF 393
RXF 631 = test system: RXF 631
SF-268 = test system: SF-268
SF-295 = test system: SF-295
SK-OV-3 = test system: SK-OV-3
SN12C = test system: SN12C
SNB-19 = test system: SNB-19
SNB-75 = test system: SNB-75
SNB-78 = test system: SNB-78
SR = test system: SR
SW-620 = test system: SW-620
TK-10 = test system: TK-10
U-251 = test system: U-251
UACC-257 = test system: UACC-257
UACC-62 = test system: UACC-62
UO-31 = test system: UO-31
XF498 = test system: XF498

COC(=O)C(=O)C(C(=O)C(=O)Nc1ccc([N+](=O)[O-])cc1[N+](=O)[O-])c1nc2ccc([N+](=O)[O-])cc2nc1O (stereo not given)
GI50 (786-0): > 100 µM (inactive) | GI50 (A498): 76.9 µM (inactive) | GI50 (A549): > 100 µM (inactive) | GI50 (ACHN): > 100 µM (inactive) | GI50 (CAKI-1): > 100 µM (inactive) | GI50 (CCRF-CEM): > 100 µM (inactive) | GI50 (COLO 205): > 100 µM (inactive) | GI50 (DLD-1): > 100 µM (inactive) | GI50 (DMS-114): > 100 µM (inactive) | GI50 (DMS-273): > 100 µM (inactive) | GI50 (EKVX): 38.2 µM (inactive) | GI50 (HCC 2998): > 100 µM (inactive) | GI50 (HCT-116): > 100 µM (inactive) | GI50 (HCT-15): > 100 µM | GI50 (HL-60): > 100 µM (inactive) | GI50 (HOP-18): 22.1 µM (inactive) | GI50 (HOP-62): > 100 µM (inactive) | GI50 (HOP-92): > 100 µM (inactive) | GI50 (HT-29): > 100 µM (inactive) | GI50 (IGROV-1): > 100 µM (inactive) | GI50 (K562): > 100 µM (inactive) | GI50 (KM-20L2): > 100 µM (inactive) | GI50 (KM12): > 100 µM (inactive) | GI50 (LOX IMVI): > 100 µM (inactive) | GI50 (LXFL 529): > 100 µM (inactive) | GI50 (M14): > 100 µM (inactive) | GI50 (M19-MEL): > 100 µM (inactive) | GI50 (MOLT-4): > 100 µM (inactive) | GI50 (Malme-3M): > 100 µM (inactive) | GI50 (NCI-H226): > 100 µM (inactive) | GI50 (NCI-H23): > 100 µM (inactive) | GI50 (NCI-H460): > 100 µM (inactive) | GI50 (NCI-H522): 50.1 µM (inactive) | GI50 (OVCAR-3): > 100 µM (inactive) | GI50 (OVCAR-4): > 100 µM (inactive) | GI50 (OVCAR-5): > 100 µM (inactive) | GI50 (OVCAR-8): > 100 µM (inactive) | GI50 (RPMI-8226): > 100 µM (inactive) | GI50 (RXF 393): 43.3 µM (inactive) | GI50 (RXF 631): > 100 µM (inactive) | GI50 (SF-268): > 100 µM (inactive) | GI50 (SF-295): > 100 µM (inactive) | GI50 (SK-OV-3): > 100 µM (inactive) | GI50 (SN12C): > 100 µM (inactive) | GI50 (SNB-19): > 100 µM (inactive) | GI50 (SNB-75): 14.6 µM (inactive) | GI50 (SNB-78): > 100 µM (inactive) | GI50 (SR): 43 µM (inactive) | GI50 (SW-620): > 100 µM (inactive) | GI50 (TK-10): > 100 µM (inactive) | GI50 (U-251): > 100 µM (inactive) | GI50 (UACC-257): > 100 µM (inactive) | GI50 (UACC-62): > 100 µM (inactive) | GI50 (UO-31): 53 µM (inactive) | GI50 (XF498): 76.7 µM (inactive)
